Drawing on patent US20110263594A1, “NOVEL TRIAZOLO(4,3-A)PYRIDINE DERIVATIVES, PROCESS FOR THE PREPARATION THEREOF, USE THEREOF AS MEDICAMENTS, PHARMACEUTICAL COMPOSITIONS AND NOVEL USE, IN PARTICULAR AS MET INHIBITORS” (SANOFI-AVENTIS, priority 2008, published 2011), this text covers melting point and IC50 for 12 compounds.

Structures can show the parent of a compound that is named as a salt. A value given as a limit tells only on which side of the number the result lay.

Data set [1] has as its target T1, MET (Homo sapiens, UniProt P08581). The experiment in a line: Test A: HTRF MET assay in 96-well format. Format: biochemical. Set-up: The His-Tev-MET (956-1390) recombinant DNA in pFastBac (Invitrogen) is transfected into insect cells; His-Tev (histidine tag with TEV cleavage site) (N, cleaved yes); made in house; host or cells: SF21 insect cells (baculovirus, pFastBac). As to conditions: MET 5 nM, 10 μM ATP, poly-(GAT). The protocol:
The His-Tev-MET (956-1390) recombinant DNA in pFastBac (Invitrogen) is transfected into insect cells and, after several viral amplification steps, the final baculovirus stock is tested for the expression of the protein of interest.
After infection for 72 h at 27° C. with the recombinant virus, SF21 cell cultures are harvested by centrifugation and the cell pellets are stored at −80° C.
The cell pellets are resuspended in the lysis buffer (buffer A [50 mM HEPES, pH 7.5, 250 mM NaCl, 10% glycerol, 1 mM TECP]; +cocktail of protease inhibitors, Roche Diagnostics, without EDTA, ref 1873580), stirred at 4° C. until the mixture is homogeneous, and then lysed mechanically using a “Dounce” type apparatus.
After centrifugation, the lysis supernatant is incubated for 2 h at 4° C. with nickel chelate resin (His-Trap 6 Fast Flow™, GE HealthCare). After washing with 20 volumes of buffer A, the suspension is packed into a column, and the proteins are eluted with a gradient of buffer B (buffer A+290 mM imidazole).
The fractions containing the protein of interest, for the purpose of electrophoretic analysis (SDS PAGE), are combined, concentrated by ultrafiltration (10 kDa cut-off) and injected onto an exclusion chromatography column (Superdex™ 200, GE HealthCare) equilibrated in buffer A.
After enzymatic cleavage of the histidine tag, the protein is reinjected onto a new IMAC nickel chelate chromatography column (His-Trap 6 Fast Flow™, GE HealthCare) equilibrated in buffer A. The fractions eluted with a gradient of buffer B and containing the protein of interest after electrophoresis (SDS PAGE) are finally combined and stored at −80° C.
For the production of autophosphorylated protein, the previous fractions are incubated for 1 h at ambient temperature after the addition of 2 mM ATP, 2 mM MgCl2 and 4 mM Na3VO4. After the reaction has been stopped with 5 mM of EDTA, the reaction mixture is injected onto a HiPrep desalifying column (GE HealthCare) pre-equilibrated in buffer A+4 mM Na3VO4, and the fractions containing the protein of interest (SDS PAGE analysis) are combined and stored at −80° C. The degree of phosphorylation is verified by mass spectrometry (LC-MS) and by peptide mapping.
MET at a final concentration of 5 nM is incubated in a final volume of 50 μl of enzymatic reaction in the presence of the test molecule (for a final concentration range of from 0.17 nM to 10 μM, 3% DMSO final concentration) in 10 mM MOPS buffer, pH 7.4, 1 mM DTT, 0.01% Tween 20. The reaction is initiated with the substrate solution to obtain final concentrations of 1 μg/ml poly-(GAT), 10 μM ATP and 5 mM MgCl2. After incubation for 10 min at ambient temperature, the reaction is stopped with a 30 μl mix so as to obtain a final solution of 50 mM Hepes, pH 7.5, 500 mM potassium fluoride, 0.1% BSA and 133 mM EDTA in the presence of 80 ng of streptavidin 61SAXLB Cis-Bio Int. and 18 ng of anti-phosphotyrosine Mab PT66-Europium Cryptate per well. After incubation for 2 hours at ambient temperature, the reading is taken at 2 wavelengths, 620 nm and 665 nm, on a reader for the TRACE/HTRF technique, and the % inhibition is calculated from the 665/620 ratios.
Target sequence in this assay (P08581 956-1390): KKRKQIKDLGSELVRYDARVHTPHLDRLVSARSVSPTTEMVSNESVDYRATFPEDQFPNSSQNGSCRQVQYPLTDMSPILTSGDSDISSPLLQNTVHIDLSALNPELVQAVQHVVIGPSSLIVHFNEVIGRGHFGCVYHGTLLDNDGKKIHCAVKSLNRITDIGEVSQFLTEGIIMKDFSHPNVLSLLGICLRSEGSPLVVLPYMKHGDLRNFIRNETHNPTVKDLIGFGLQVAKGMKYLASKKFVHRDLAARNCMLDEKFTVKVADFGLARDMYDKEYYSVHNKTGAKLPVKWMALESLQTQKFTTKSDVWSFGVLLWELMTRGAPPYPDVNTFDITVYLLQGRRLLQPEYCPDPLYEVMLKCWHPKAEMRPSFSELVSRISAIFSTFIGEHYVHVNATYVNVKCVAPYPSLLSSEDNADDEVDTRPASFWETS
In general terms: TR-FRET usually uses a lanthanide donor and a delayed reading to cut background.

In data set [2] the test system is HCT116 cells and MKN45 cells. The experiment in a line: Test C: measurement of cell proliferation by 14C-thymidine pulse. Format: cell-based. As to conditions: 14C-thymidine incorporation, 96 h of treatment; cell line not given. The protocol:
The cells are seeded into Cytostar 96-well plates in 180 μl for 4 hours at 37° C. and 5% CO2: HCT116 cells in a proportion of 2500 cells per well in DMEM medium+10% foetal calf serum+1% L-glutamine, and MKN45 cells in a proportion of 7500 cells per well in RPMI medium+10% foetal calf serum+1% L-glutamine. After these 4 hours of incubation, the products are added in 10 μl as a […] concentrated solution according to the dilution method mentioned for the ELISA. The products are tested at 10 concentrations in duplicate from 10 000 nM to 0.3 nM with an increment of 3.
After treatment for 72 h, 10 μl of ^14C-thymidine at 10 μCi/ml are added so as to obtain 0.1 μCi per well. The ^14C-thymidine incorporation is measured on a Micro-Beta machine (Perkin-Elmer) after 24 hours of pulse and 96 h of treatment.
All the steps of the assay are automated on BIOMEK 2000 or TECAN stations.
A general note: Incorporation of labelled thymidine or its analogues reports DNA synthesis.

The target in data set [3] is T1, MET. The experiment in a line: Test B: inhibition of the autophosphorylation of MET, ELISA technique (pppY1230,1234,1235) in MKN45 cells. Format: cell-based. Set-up: endogenous in cells; host or cells: MKN45 cells. The conditions noted are these: 1 h treatment, phosphoMET ELISA. The protocol: B) Test B: Inhibition of the autophosphorylation of MET; ELISA technique (pppY1230,1234,1235) a) Cell lysates: MKN45 cells are seeded into 96-well plates (cell coat BD polylysine) at 20 000 cells/well in 200 μl in RPMI medium+10% FCS+1% L-glutamine. They are left to adhere for 24 hours in an incubator.
The cells are treated the day after seeding with the products at 6 concentrations, in duplicate, for 1 h. At least 3 control wells are treated with the same final amount of DMSO.
Product dilution: Stock at 10 mM in pure DMSO—range from 10 mM to 30 μM with an increment of 3 in pure DMSO—intermediate dilutions to 1/50 in culture medium and then removal of 10 μl added directly to the cells (200 μl): final range of 10 000 to 30 nM.
At the end of the incubation, the supernatant is carefully removed and rinsing is performed with 200 μl of PBS. Next, 100 μl of lysis buffer are placed directly in the wells on ice and incubated at 4° C. for 30 minutes. Lysis buffer: 10 mM Tris HCl, pH 7.4, 100 mM NaCl, 1 mM EDTA, 1 mM EGTA, 1% Triton X-100, 10% glycerol, 0.1% SDS, 0.5% deoxycholate, 20 mM NaF, 2 mM Na3VO4, 1 mM PMSF and cocktail of antiproteases.
The 100 μl of lysates are transferred into a V-bottomed polypropylene plate and the ELISA is performed immediately, or the plate is frozen at −80° C.
70 μl of kit dilution buffer+30 μL of cell lysate, or 30 μl of lysis buffer for the blanks, are added to each well of the kit plate. Incubation is carried out for 2 h with gentle agitation at ambient temperature.
The wells are rinsed 4 times with 400 μl of kit washing buffer. Incubation is carried out with 100 μl of anti-phospho MET antibody for 1 hour at ambient temperature.
The wells are rinsed 4 times with 400 μl of kit washing buffer. Incubation is carried out with 100 μl of anti-rabbit HRP antibody for 30 minutes at ambient temperature (except for the wells of chromogen alone).
The wells are rinsed 4 times with 400 μl of kit washing buffer. 100 μL of chromogen are introduced and incubation is carried out for 30 minutes in the dark at ambient temperature.
The reaction is stopped with 100 μl of stop solution. The plate is read without delay at […], 0.1 second on a Wallac Victor plate reader.
Target sequence in this assay (P08581 25-1390): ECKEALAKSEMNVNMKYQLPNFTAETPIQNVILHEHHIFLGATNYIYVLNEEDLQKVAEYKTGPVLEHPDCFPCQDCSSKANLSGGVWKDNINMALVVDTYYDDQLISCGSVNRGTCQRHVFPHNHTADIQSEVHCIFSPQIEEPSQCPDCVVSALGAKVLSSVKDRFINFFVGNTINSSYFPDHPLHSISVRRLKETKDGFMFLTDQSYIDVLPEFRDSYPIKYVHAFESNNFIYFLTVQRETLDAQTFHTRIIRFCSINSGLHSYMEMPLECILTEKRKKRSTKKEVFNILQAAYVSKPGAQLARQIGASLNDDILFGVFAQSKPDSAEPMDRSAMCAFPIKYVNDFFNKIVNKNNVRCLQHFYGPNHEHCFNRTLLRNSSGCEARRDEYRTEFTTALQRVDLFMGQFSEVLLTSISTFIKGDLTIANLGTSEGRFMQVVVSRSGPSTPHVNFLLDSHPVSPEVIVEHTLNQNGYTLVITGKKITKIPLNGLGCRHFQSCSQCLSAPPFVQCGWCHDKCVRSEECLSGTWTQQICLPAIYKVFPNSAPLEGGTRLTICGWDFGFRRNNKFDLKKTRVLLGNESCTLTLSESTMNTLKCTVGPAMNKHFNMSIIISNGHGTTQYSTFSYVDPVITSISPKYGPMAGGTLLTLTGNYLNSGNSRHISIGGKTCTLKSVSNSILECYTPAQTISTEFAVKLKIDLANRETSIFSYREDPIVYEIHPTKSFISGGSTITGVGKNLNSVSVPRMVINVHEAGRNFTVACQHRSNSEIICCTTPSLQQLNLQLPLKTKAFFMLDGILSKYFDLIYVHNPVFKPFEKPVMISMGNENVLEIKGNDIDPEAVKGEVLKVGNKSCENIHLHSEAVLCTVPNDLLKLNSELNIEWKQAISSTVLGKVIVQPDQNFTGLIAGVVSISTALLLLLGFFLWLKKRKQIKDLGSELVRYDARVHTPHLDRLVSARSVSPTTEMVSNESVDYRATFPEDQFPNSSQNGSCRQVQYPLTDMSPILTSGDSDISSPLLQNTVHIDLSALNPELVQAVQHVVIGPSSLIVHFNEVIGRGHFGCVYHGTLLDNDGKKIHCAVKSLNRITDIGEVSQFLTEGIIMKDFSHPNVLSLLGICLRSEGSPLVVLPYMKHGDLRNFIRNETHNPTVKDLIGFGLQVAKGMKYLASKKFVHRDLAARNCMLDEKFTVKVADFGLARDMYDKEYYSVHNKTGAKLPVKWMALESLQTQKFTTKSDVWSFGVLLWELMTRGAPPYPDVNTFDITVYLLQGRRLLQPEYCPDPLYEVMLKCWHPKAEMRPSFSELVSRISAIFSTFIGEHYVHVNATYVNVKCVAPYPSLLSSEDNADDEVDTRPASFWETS

The compound `O=C(Nc1nc2ccc(Sc3nnc4ccc(-c5cnn(C6CCNCC6)c5)cn34)cc2s1)C1CC1` (as salt: hydrochloride) [Example 16, N-(6-{[6-(1-piperidin-4-yl-1H-pyrazol-4-yl)[1,2,4]triazolo[4,3-a]pyridin-3-yl]sulphanyl}-1,3-benzothiazol-2-yl)cyclopropanecarboxamide] showed a melting point of over 260 °C.
For the compound `Nc1nc2ccc(Sc3nnc4ccccn34)cc2s1` [Example 1, 6-([1,2,4]triazolo[4,3-a]pyridin-3-ylsulphanyl)-1,3-benzothiazol-2-amine], the melting point was in the range of 260 to 266 °C. Also, the IC50 in data set [1] was under 500 nM.
The compound `O=C(Nc1nc2ccc(Sc3nnc4ccccn34)cc2s1)C1CC1` [Example 2, N-[6-([1,2,4]triazolo[4,3-a]pyridin-3-ylsulphanyl)-1,3-benzothiazol-2-yl]cyclopropanecarboxamide] returned a melting point of 187 to 190 °C. Also, the IC50 in data set [2] is under 1000 nM. Besides, in data set [3], the IC50 is over 500 nM. Besides, in data set [1], the IC50 is under 100 nM.
Regarding `O=C(NCCN1CCOCC1)Nc1nc2ccc(Sc3nnc4ccccn34)cc2s1` [Example 3, 1-[2-(morpholin-4-yl)ethyl]-3-[6-([1,2,4]triazolo[4,3-a]pyridin-3-ylsulphanyl)-1,3-benzothiazol-2-yl]urea], the melting point is 204 to 207 °C. Also, the IC50 in data set [2] is under 1000 nM. For the same compound, in data set [3], the IC50 is under 100 nM. Also, in data set [1], the IC50 was under 100 nM.
On to `CN1CCN(CCNC(=O)Nc2nc3ccc(Sc4nnc5ccccn45)cc3s2)CC1` [Example 4, 1-[2-(4-methylpiperazin-1-yl)ethyl]-3-[6-([1,2,4]triazolo[4,3-a]pyridin-3-ylsulphanyl)-1,3-benzothiazol-2-yl]urea], for which the melting point fell in the range of 180 to 185 °C. In data set [2], this compound displayed an IC50 of under 1000 nM. The same compound registered an IC50 in data set [3] of under 100 nM. In addition, the IC50 in data set [1] was under 100 nM.
Consider `Nc1nc2ccc(Sc3nnc4ccc(I)cn34)cc2s1` [Example 6, 6-[(6-iodo[1,2,4]triazolo[4,3-a]pyridin-3-yl)sulphanyl]-1,3-benzothiazol-2-amine], for which the IC50 is under 1000 nM in data set [2] and under 100 nM in data set [1].
On to `O=C(Nc1nc2ccc(Sc3nnc4ccc(-c5ccc(F)cc5)cn34)cc2s1)C1CC1` [Example 8, N-{6-[6-(4-fluorophenyl)[1,2,4]triazolo[4,3-a]pyridin-3-ylsulphanyl]-1,3-benzothiazol-2-yl}cyclopropanecarboxamide], for which the IC50 in data set [2] is under 1000 nM; in data set [3], under 100 nM; in data set [1], under 100 nM.
In the case of `Cn1cc(-c2ccc3nnc(Sc4ccc5nc(N)sc5c4)n3c2)cn1` [Example 9, 6-{[6-(1-methyl-1H-pyrazol-4-yl)[1,2,4]triazolo[4,3-a]pyridin-3-yl]sulphanyl}-1,3-benzothiazol-2-amine], the figures for the IC50 in data set [2], in data set [3] and in data set [1] were under 1000 nM, over 500 nM and under 100 nM, respectively.
For `Cn1cc(-c2ccc3nnc(Sc4ccc5nc(NC(=O)C6CC6)sc5c4)n3c2)cn1` [Example 10, N-(6-{[6-(1-methyl-1H-pyrazol-4-yl)[1,2,4]triazolo[4,3-a]pyridin-3-yl]sulphanyl}-1,3-benzothiazol-2-yl)cyclopropanecarboxamide] the same measures were under 1000 nM, under 100 nM and under 100 nM.
For `O=C(Nc1nc2ccc(Sc3nnc4ccc(-c5cnn(CCOC6CCCCO6)c5)cn34)cc2s1)C1CC1` (centres unmarked) [Example 14, N-(6-{[6-(1-[2-(tetrahydro-2H-pyran-2-yloxy)ethyl]-1H-pyrazol-4-yl)[1,2,4]triazolo[4,3-a]pyridin-3-yl]sulphanyl}-1,3-benzothiazol-2-yl)cyclopropanecarboxamide] the same measures were under 1000 nM, under 100 nM and under 100 nM.
For the compound `O=C(Nc1nc2ccc(Sc3nnc4ccc(-c5cnn(CCO)c5)cn34)cc2s1)C1CC1` [Example 15, N-(6-{[6-(1-(2-hydroxyethyl)-1H-pyrazol-4-yl)[1,2,4]triazolo[4,3-a]pyridin-3-yl]sulphanyl}-1,3-benzothiazol-2-yl)cyclopropanecarboxamide], the 50% inhibitory concentration (IC50) in data set [2] was under 1000 nM; in data set [3] it was under 100 nM; in data set [1], under 100 nM.
As for `O=C(Nc1nc2ccc(Sc3nnc4ccc(-c5cnn(C6CCNCC6)c5)cn34)cc2s1)C1CC1` [Example 16, N-(6-{[6-(1-piperidin-4-yl-1H-pyrazol-4-yl)[1,2,4]triazolo[4,3-a]pyridin-3-yl]sulphanyl}-1,3-benzothiazol-2-yl)cyclopropanecarboxamide], the IC50 in data set [2] is under 1000 nM; in data set [3] it was under 100 nM; in data set [1], under 100 nM.

A word on the melting point: it is the temperature of the solid-liquid transition. What is called IC50 is the point on the concentration scale where inhibition reaches its midpoint.
